Test results as given in ChEMBL document CHEMBL5614431, “Discovery of 1,3,4-oxadiazoles with slow-action activity against Plasmodium falciparum malaria parasites” (Eur J Med Chem, 2024).

Assays:
[1] = Selectivity ratio of IC50 for antimalarial activity against synchronous ring stage Plasmodium falciparum 3D7 infected in human Erythrocyte assessed as inhibition of parasite growth incubated for 96 hrs supplemented with IPP by [3H]-hypoxanthine incorporation assay to IC50 for antimalarial activity against synchronous ring stage Plasmodium falciparum 3D7 infected in human Erythrocyte assessed as …; format: functional
Plasmodium falciparum [2] = experiment: Antimalarial activity against synchronous ring stage Plasmodium falciparum 3D7 infected in human Erythrocyte assessed as inhibition of parasite growth incubated for 96 hrs supplemented with IPP by [3H]-hypoxanthine incorporation assay; format: functional, organism-based; details: 3D7, Erythrocyte
Plasmodium falciparum [3] = experiment: Antimalarial activity against synchronous ring stage Plasmodium falciparum 3D7 infected in human Erythrocyte assessed as inhibition of parasite growth incubated for 48 hrs by [3H]-hypoxanthine incorporation assay; format: functional, organism-based; details: 3D7, Erythrocyte
[4] = Metabolic stability in human liver microsomes assessed as half life; format: ADME, Microsome
[5] = Selectivity index, ratio of IC50 for cytotoxicity against human NFF cells to IC50 for antimalarial activity against synchronous ring stage Plasmodium falciparum 3D7 infected in human Erythrocyte assessed as inhibition of parasite growth incubated for 96 hrs; format: toxicity, cell-based; details: read-out: Ratio IC50
Plasmodium falciparum [6] = experiment: Antimalarial activity against synchronous ring stage Plasmodium falciparum 3D7 infected in human Erythrocyte assessed as inhibition of parasite growth incubated for 96 hrs by [3H]-hypoxanthine incorporation assay; format: functional, organism-based; details: 3D7, Erythrocyte
[7] = Selectivity ratio of IC50 for antimalarial activity against synchronous ring stage Plasmodium falciparum 3D7 infected in human Erythrocyte assessed as inhibition of parasite growth incubated for 48 hrs by [3H]-hypoxanthine incorporation assay to IC50 for antimalarial activity against synchronous ring stage Plasmodium falciparum 3D7 infected in human Erythrocyte assessed as inhibition of parasite growth incubated for 48 hrs by [3H]-hypoxanthine incorporation assay; format: functional
[8] = Metabolic stability in mouse liver microsomes assessed as half life; format: ADME, Microsome
[9] = Cytotoxicity against human NFF cells assessed as reduction in cell viability incubated for 72 hrs by SRB assay; format: toxicity, cell-based
[10] = Apparent permeability of the compound in human Caco-2 cells across apical to basolateral side; format: ADME, cell-based
Plasmodium falciparum [11] = experiment: Antimalarial activity against multidrug-resistant synchronous ring stage Plasmodium falciparum Dd2 infected in human Erythrocyte assessed as inhibition of parasite growth incubated for 48 hrs by [3H]-hypoxanthine incorporation assay; format: functional, organism-based
Plasmodium falciparum [12] = experiment: Resistance index, ratio of IC50 for antimalarial activity against multidrug-resistant synchronous ring stage Plasmodium falciparum Dd2 infected in human Erythrocyte assessed as inhibition of parasite growth incubated for 96 hrs by [3H]-hypoxanthine incorporation assay to IC50 for antimalarial activity against synchronous ring stage Plasmodium falciparum 3D7 infected in human Erythrocyte assessed …; format: toxicity, organism-based
[13] = Selectivity ratio of IC50 for antimalarial activity against multidrug-resistant synchronous ring stage Plasmodium falciparum Dd2 infected in human Erythrocyte assessed as inhibition of parasite growth incubated for 48 hrs by [3H]-hypoxanthine incorporation assay to IC50 for antimalarial activity against multidrug-resistant synchronous ring stage Plasmodium falciparum Dd2 infected in human …; format: functional
Plasmodium falciparum [14] = experiment: Antimalarial activity against multidrug-resistant synchronous ring stage Plasmodium falciparum Dd2 infected in human Erythrocyte assessed as inhibition of parasite growth incubated for 96 hrs by [3H]-hypoxanthine incorporation assay; format: functional, organism-based
[15] = Cmax in non fasted female BALB/c mouse plasma at 100 mg/kg, po via gavage and measured upto 24 hrs by LC-MS analysis; format: ADME, organism-based
[16] = AUC (0 to t) in non fasted female BALB/c mouse plasma at 100 mg/kg, po via gavage and measured after 7.5 hrs by LC-MS analysis; format: ADME, organism-based
[17] = Tmax in non fasted female BALB/c mouse at 100 mg/kg, po via gavage and measured upto 24 hrs by LC-MS analysis; format: ADME, organism-based; details: in vivo

SMILES | IC50 (Plasmodium falciparum [3]) [µM] | selectivity ratio at 96 h [5] | IC50 (Plasmodium falciparum [6]) [µM] | Ratio IC50 [7] | IC50 at 72 h [9] [µM] | further results
CCC[C@@H]1C[C@@H](C(=O)N[C@@H]([C@H]2O[C@H](SC)[C@H](O)[C@@H](O)[C@H]2O)[C@H](C)Cl)N(C)C1 [CLINDAMYCIN] |  |  |  |  |  | Ratio IC50 [1]: 3571; IC50 (Plasmodium falciparum [2]): > 25 µM
O=S(=O)(c1nnc(N2CCCCCC2)o1)C1CCCCC1 | > 10 | > 1150 | 0.09 | >114 | > 100 | half-life [4]: 68 min; half-life [8]: 7 min
O=S(=O)(c1nnc(N2CCCCC2)o1)C1CCCCC1 | > 12.5 | > 250 | 0.4 | >32 | > 100 | 
O=S(=O)(c1nnc(N2CC3CC2CO3)o1)C1CCCCC1 (racemic) | > 50 | > 63 | 1.58 | >32 | > 100 | 
O=S(=O)(c1nnc(N2CCCC3(COC3)C2)o1)C1CCCCC1 | > 50 | > 185 | 0.54 | >93 | > 100 | 
O=S(=O)(c1nnc(N2CCC3(CC2)COC3)o1)C1CCCCC1 | > 10 | > 1020 | 0.1 | >102 | > 100 | half-life [4]: 112 min; Papp A→B [10]: 44 ×10⁻⁶ cm/s; half-life [8]: 18 min
CC1(C)CCCN(c2nnc(S(=O)(=O)C3CCCCC3)o2)C1 | 21.1 | > 2500 | 0.04 | 527 | > 100 | 
O=S(=O)(c1nnc(N2CCCOCC2)o1)C1CCCCC1 | > 100 | > 133 | 0.75 | >134 | > 100 | 
O=S(=O)(CC1CCCCC1)c1nnc(N2CCOCC2)o1 | 17.6 | 151 | 0.39 | 45 | 59 | 
O=S(=O)(c1nnc(N2C3CCC2CC3)o1)C1CCCCC1 | 5.76 | 40 | 0.83 | 7 | 33.5 | 
O=S(=O)(c1nnc(N2CCc3ccccc32)o1)C1CCCCC1 | > 10 | > 26 | 1.12 | >9 | > 25 | 
CC1CCN(c2nnc(S(=O)(=O)Cc3ccc(Cl)c(Cl)c3)o2)CC1 | 11.5 | 162 | 0.16 | 72 | 26 | Ratio IC50 [1]: 1; half-life [4]: 3 min; IC50 (Plasmodium falciparum [2]): 0.2 µM; IC50 (Plasmodium falciparum [11]): 10.1 µM; Ratio IC50 (Plasmodium falciparum [12]): 0.4; half-life [8]: < 2 min; Ratio IC50 [13]: 145; IC50 (Plasmodium falciparum [14]): 0.07 µM
O=S(=O)(c1nnc(N2CC3(CCOCC3)C2)o1)C1CCCCC1 | > 50 | > 909 | 0.11 | >476 | > 100 | 
CC(C)(C)OC(=O)N1CCC(S(=O)(=O)c2nnc(N3CCOCC3)o2)CC1 | > 25 | > 20 | 5.05 | >5 | > 100 | 
O=S(=O)(c1nnc(N2CCC(C(F)(F)F)CC2)o1)C1CCCCC1 | 22.1 | > 270 | 0.37 | 61 | > 100 | 
CC1CC(C)CN(c2nnc(S(=O)(=O)C3CCCCC3)o2)C1 (mixture of isomers) | > 12.5 | > 4000 | 0.03 | >403 | > 100 | 
O=S(=O)(c1nnc(N2C3CCC2COC3)o1)C1CCCCC1 | > 12.5 | > 270 | 0.37 | >34 | > 100 | 
CC1CCCCN1c1nnc(S(=O)(=O)C2CCCCC2)o1 (racemic) | > 12.5 | > 277 | 0.31 | >40 | > 100 | 
O=S(=O)(c1nnc(N2CCOCC2)o1)C1CCCCCC1 | > 25 | > 769 | 0.18 | >137 | > 100 | Cmax [15]: 650 nM; AUC(0-t) at 7.5 h [16]: 1.16 µM·h; Tmax [17]: 15 min
O=S(=O)(c1nnc(N2CCC3(CCCO3)CC2)o1)C1CCCCC1 | > 50 | > 135 | 0.77 | >65 | > 100 | 
O=S(=O)(c1nnc(N2CCCC2)o1)C1CCCCC1 | > 50 | > 28 | 3.53 | >14 | > 100 | 
O=S(=O)(c1nnc(N2CC3CCC2C3)o1)C1CCCCC1 (racemic) | > 25 | > 179 | 0.56 | >45 | > 100 | 
O=S(=O)(c1nnc(N2CCC3(CC2)OCCO3)o1)C1CCCCC1 | > 50 | > 111 | 0.9 | >56 | > 100 | 
O=S(=O)(CC1CCCC1)c1nnc(N2CCOCC2)o1 | > 10 | > 158 | 0.64 | >16 | > 100 | 
CC(C)(C)CS(=O)(=O)c1nnc(N2CCOCC2)o1 | > 10 | > 79 | 1.34 | >8 | > 100 | 
O=S(=O)(c1nnc(N2CCOCC2)o1)C1CC2CCC1C2 (racemic) | > 10 | > 377 | 0.28 | >36 | > 100 | 
Cc1ccc(C)c(CS(=O)(=O)c2nnc(N3CCOCC3)o2)c1 | 12.4 | 24 | 0.84 | 15 | 20.4 | Ratio IC50 [1]: 1; half-life [4]: 5 min; IC50 (Plasmodium falciparum [2]): 0.84 µM; IC50 (Plasmodium falciparum [11]): 13 µM; Ratio IC50 (Plasmodium falciparum [12]): 0.7; Papp A→B [10]: 39 ×10⁻⁶ cm/s; half-life [8]: 3 min; Ratio IC50 [13]: 23; IC50 (Plasmodium falciparum [14]): 0.57 µM
